Tests used:
[1] = 101 kPa, Liquid; for viscosity: Capillary tube (Ostwald / Ubbelohde) method; for mass density: Vibrating tube method
[2] = xn = mol fraction of the nth substance listed; conditions: 101 kPa, Liquid; for viscosity: Capillary tube (Ostwald / Ubbelohde) method; for mass density: Vibrating tube method

CCCCCC(C)O (stereo not drawn) [2-heptanol]
[1]
Conditions	mass density [kg/m3]	viscosity [mPa·s]
298.15 K	813.18	5.003
303.15 K	809.26	4.152
308.15 K	805.01	3.478
313.15 K	801.14	2.853

CCCCC(C)O (stereo not drawn) [2-hexanol]
[1]
Conditions	mass density [kg/m3]	viscosity [mPa·s]
298.15 K	810.14	4.101
303.15 K	806.13	3.411
308.15 K	802.06	2.819
313.15 K	797.96	2.219

CCC(C)O (stereo not drawn) [butan-2-ol]
[1]
Conditions	mass density [kg/m3]	viscosity [mPa·s]
298.15 K	802.7	3.105
303.15 K	798.3	2.597
308.15 K	793.57	2.153
313.15 K	789.15	1.734

CCC(C)O (stereo not drawn) [butan-2-ol] + CCC(C)=O
[2], x2 = 0
Conditions	mass density [kg/m3]	viscosity [mPa·s]
298.15 K	802.7	3.105
303.15 K	798.3	2.597
308.15 K	793.57	2.153
313.15 K	789.15	1.734

CCC(C)=O [butanone]
[1]
Conditions	mass density [kg/m3]	viscosity [mPa·s]
298.15 K	799.48	0.381
303.15 K	794.63	0.368
308.15 K	789.9	0.352
313.15 K	785.52	0.339

CCC(C)=O [butanone] + CCCC(C)O
[2], x1 = 1
Conditions	mass density [kg/m3]	viscosity [mPa·s]
298.15 K	799.48	0.381
303.15 K	794.63	0.368
308.15 K	789.9	0.352
313.15 K	785.52	0.339

CCC(C)=O [butanone] + CCCCC(C)O
[2], x1 = 1
Conditions	mass density [kg/m3]	viscosity [mPa·s]
298.15 K	799.48	0.381
303.15 K	794.63	0.368
308.15 K	789.9	0.352
313.15 K	785.52	0.339

CCC(C)=O [butanone] + CCCCCC(C)O
[2], x1 = 1
Conditions	mass density [kg/m3]	viscosity [mPa·s]
298.15 K	799.48	0.381
303.15 K	794.63	0.368
308.15 K	789.9	0.352
313.15 K	785.52	0.339

CCCC(C)O (stereo not drawn) [pentan-2-ol]
[1]
Conditions	mass density [kg/m3]	viscosity [mPa·s]
298.15 K	805.41	3.478
303.15 K	801.21	2.801
308.15 K	796.64	2.335
313.15 K	792.51	1.993

CC(C)O [propan-2-ol]
[1]
Conditions	mass density [kg/m3]	viscosity [mPa·s]
298.15 K	781.09	2.055
303.15 K	776.77	1.788
308.15 K	771.87	1.563
313.15 K	767.37	1.379

CC(C)O [propan-2-ol] + CCC(C)=O
[2], x2 = 0
Conditions	mass density [kg/m3]	viscosity [mPa·s]
298.15 K	781.09	2.055
303.15 K	776.77	1.788
308.15 K	771.87	1.563
313.15 K	767.37	1.379
